Test [1] deals with T1, CYP11B2 (Homo sapiens (Human), UniProt P19099). The experiment in a line: G-402 cellular enzyme assay, human CYP11B2 (aldosterone release). Particulars: G-402 cells, 1 μM Deoxycorticosterone. In kind it is cell-based. The source says:
(§1) Herein we identified the use of the G-402 cell line as a host cell to ectopically express (transiently or stably) enzymes of the CYP11 family. Specifically we developed stable G-402 cells expressing ectopically human CYP11B1, human CYP11B2, human CYP11A1, cynmolgus CYP11B1 or cynomolgus CYP11B2 enzyme activity. Importantly the identified cell line G-402 expresses co-factors (adrenodoxin and adrenodoxin reductase) important for the activity of the CYP11 family and no relevant enzyme activity of the CYP11 family (in comparison to H295R cells) was detected in these cells. Therefore the G-402 cell line is uniquely suited as a host cell for the ectopic expression of enzymes from the CYP11 family.
(§2) G-402 cells can be obtained from ATCC (CRL-1440) and were originally derived from a renal leiomyoblastoma.
(§3) The expression plasmids contains the ORF for either human/cyno CYP11B1 or CYP11B2 under the control of a suitable promoter (CMV-promoter) and a suitable resistance marker (neomycin). Using standard techniques the expression plasmid is transfected into G-402 cells and these cells are then selected for expressing the given resistance markers. Individual cell-clones are then selected and assessed for displaying the desired enzymatic activity using 11-Deoxycorticosterone (Cyp11B2) or 11-Deoxycortisol (Cyp11B1) as a substrate.
(§4) G-402 cells expressing CYP11 constructs were established as described above and maintained in McCoy's 5a Medium Modified, ATCC Catalog No. 30-2007 containing 10% FCS and 400 μg/ml G418 (Geneticin) at 37° C. under an atmosphere of 5% CO2/95% air. Cellular enzyme assays were performed in DMEM/F12 medium containing 2.5% charcoal treated FCS and appropriate concentration of substrate (0.3-10 uM 11-Deoxycorticosterone, 11-Deoxycortisol or Corticosterone). For assaying enzymatic activity, cells were plated onto 96 well plates and incubated for 16 h. An aliquot of the supernatant is then transferred and analyzed for the concentration of the expected product (Aldosterone for CYP11B2; Cortisol for CYP11B1). The concentrations of these steroids can be determined using HTRF assays from CisBio analyzing either Aldosterone or Cortisol.
(§5) Inhibition of the release of produced steroids can be used as a measure of the respective enzyme inhibition by test compounds added during the cellular enzyme assay. The dose dependent inhibition of enzymatic activity by a compound is calculated by means of plotting added inhibitor concentrations (x-axes) vs. measured steroid/product level (y-axes). The inhibition is then calculated by fitting the following 4-parameter sigmoidal function (Morgan-Mercer-Flodin (MMF) model) to the raw data points using the least squares method:
(§6) [formula] wherein, A is the maximum y value, B is the EC50 factor determined using XLFit, C is the minimum y value and D is the slope value.
(§7) EC50 values for compounds claimed herein were tested with the G402-based assay system described. Cyp11B2 enzyme activity was tested in presence of 1 μM Deoxycorticosterone and variable amounts of inhibitors; Cyp11B1 enzyme activity was tested in presence of 1 μM Deoxycortisol and variable amounts of inhibitors.

The next test has as its target human CYP11B1 (Homo sapiens (Human), UniProt P15538). The experiment in a line: G-402 cellular enzyme assay, human CYP11B1 (cortisol release). Particulars: G-402 cells, 1 μM Deoxycortisol. Format: cell-based.
Excerpt: as §1, §2, §3, §4, §5, §6, §7

Test [2] addresses T1, CYP11B2. Particulars: patients with primary aldosteronism, oral; cited from earlier work.
Test [3] relates to rat model of chronic kidney disease. Particulars: cited from earlier work.
Where [4] appears, read: angiotensin II and high salt treatment.

T1 sequence (P19099 25-503): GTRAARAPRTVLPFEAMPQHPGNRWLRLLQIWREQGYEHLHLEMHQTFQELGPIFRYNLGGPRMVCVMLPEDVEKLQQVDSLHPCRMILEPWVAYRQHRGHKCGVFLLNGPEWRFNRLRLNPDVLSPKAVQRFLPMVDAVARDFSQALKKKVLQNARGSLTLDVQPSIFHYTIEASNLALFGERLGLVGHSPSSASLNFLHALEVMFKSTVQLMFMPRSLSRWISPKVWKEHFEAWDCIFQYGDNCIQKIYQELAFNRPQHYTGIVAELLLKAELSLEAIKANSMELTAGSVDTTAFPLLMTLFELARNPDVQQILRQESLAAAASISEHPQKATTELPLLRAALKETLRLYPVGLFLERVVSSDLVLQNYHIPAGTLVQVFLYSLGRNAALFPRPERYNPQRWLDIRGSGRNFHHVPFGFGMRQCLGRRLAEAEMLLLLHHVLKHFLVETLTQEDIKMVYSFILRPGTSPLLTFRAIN
Chain of human CYP11B1 (P15538 25-503): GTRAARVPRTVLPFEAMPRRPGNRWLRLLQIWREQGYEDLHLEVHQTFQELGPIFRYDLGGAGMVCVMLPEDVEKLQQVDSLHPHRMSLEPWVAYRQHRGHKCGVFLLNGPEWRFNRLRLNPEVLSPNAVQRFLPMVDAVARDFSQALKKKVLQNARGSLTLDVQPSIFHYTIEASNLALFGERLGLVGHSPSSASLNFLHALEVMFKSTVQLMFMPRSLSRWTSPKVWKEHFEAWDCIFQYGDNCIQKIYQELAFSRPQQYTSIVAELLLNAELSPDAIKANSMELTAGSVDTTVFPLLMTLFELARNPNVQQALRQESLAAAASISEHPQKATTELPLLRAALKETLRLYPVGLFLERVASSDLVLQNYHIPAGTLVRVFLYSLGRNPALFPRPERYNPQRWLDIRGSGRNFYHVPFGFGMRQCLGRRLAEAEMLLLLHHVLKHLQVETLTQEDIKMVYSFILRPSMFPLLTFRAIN

For `CN(c1cncc(N2C(=O)c3ccc(Cl)cc3C2(C)C)c1)C1CN(S(C)(=O)=O)C1` [Example 11, 5-Chloro-3,3-dimethyl-2-[5-[methyl-(1-methylsulfonylazetidin-3-yl)amino]pyridin-3-yl]isoindol-1-one], the EC50 at CYP11B2 [1] came to 3 nM; on human CYP11B1, 50 nM.
Regarding `CCC(=O)N1CC(N(C)c2cncc(N3C(=O)c4ccc(Cl)cc4C3(C)C)c2)C1` [Example 12, 5-Chloro-3,3-dimethyl-2-[5-[methyl-(1-propanoylazetidin-3-yl)amino]pyridin-3-yl]isoindol-1-one], the EC50 at CYP11B2 [1] worked out at 2 nM; at human CYP11B1, 86 nM.
For `CC(C)S(=O)(=O)N1CC(N(C)c2cncc(N3C(=O)c4ccc(Cl)cc4C3(C)C)c2)C1` [Example 13, 5-Chloro-3,3-dimethyl-2-[5-[methyl-(1-propan-2-ylsulfonylazetidin-3-yl)amino]pyridin-3-yl]isoindol-1-one] the same measures were 0.5 nM and 37 nM.
For the compound `CCCS(=O)(=O)N1CC(N(C)c2cncc(N3C(=O)c4ccc(Cl)cc4C3(C)C)c2)C1` [Example 14, 5-Chloro-3,3-dimethyl-2-[5-[methyl-(1-propylsulfonylazetidin-3-yl)amino]pyridin-3-yl]isoindol-1-one], the EC50 on CYP11B2 [1] stood at 0.6 nM; at human CYP11B1, 25 nM.
For `CCC(=O)N1CCC(N(C)c2cncc(N3C(=O)c4ccc(Cl)cc4C3(C)C)c2)CC1` [Example 19, 5-Chloro-3,3-dimethyl-2-[5-[methyl-(1-propanoylpiperidin-4-yl)amino]pyridin-3-yl]isoindol-1-one] the same measures were 0.7 nM and 2 nM.
For the compound `CCS(=O)(=O)N1CCC(N(C)c2cncc(N3C(=O)c4ccc(Cl)cc4C3(C)C)c2)CC1` [Example 20, 5-Chloro-2-[5-[(1-ethylsulfonylpiperidin-4-yl)-methylamino]pyridin-3-yl]-3,3-dimethylisoindol-1-one], the EC50 at CYP11B2 [1] amounted to 0.8 nM; at human CYP11B1 it was 0.4 nM.
On to `CN(c1cncc(N2C(=O)c3ccc(Cl)cc3C2(C)C)c1)C1CCN(S(C)(=O)=O)CC1` [Example 21, 5-Chloro-3,3-dimethyl-2-[5-[methyl-(1-methylsulfonylpiperidin-4-yl)amino]pyridin-3-yl]isoindol-1-one], for which the EC50 at CYP11B2 [1] and on human CYP11B1 was 3 nM throughout.
As to `CCC(=O)N1CC(Nc2cncc(N3Cc4cc(Cl)ccc4C3=O)c2)C1` [Example 28, 5-Chloro-2-[5-[(1-propanoylazetidin-3-yl)amino]pyridin-3-yl]-3H-isoindol-1-one], the EC50 at CYP11B2 [1] is 954 nM; at human CYP11B1, above 30000 nM.
Turning to `CCC(=O)N1CC(Nc2cncc(N3CCc4cc(Cl)ccc4C3=O)c2)C1` [Example 29, 6-Chloro-2-[5-[(1-propanoylazetidin-3-yl)amino]pyridin-3-yl]-3,4-dihydroisoquinolin-1-one], the EC50 on CYP11B2 [1] was found to be 178 nM; at human CYP11B1, 23700 nM.
In the case of `CCS(=O)(=O)N1CC(Nc2cncc(N3CCc4cc(Cl)ccc4C3=O)c2)C1` [Example 30, 6-Chloro-2-[5-[(1-ethylsulfonylazetidin-3-yl)amino]pyridin-3-yl]-3,4-dihydroisoquinolin-1-one], the EC50 at CYP11B2 [1] worked out at 61 nM; at human CYP11B1, 15400 nM.
Take `CC(C)S(=O)(=O)N1CC(Nc2cncc(N3CCc4cc(Cl)ccc4C3=O)c2)C1` [Example 31, 6-Chloro-2-[5-[(1-propan-2-ylsulfonylazetidin-3-yl)amino]pyridin-3-yl]-3,4-dihydroisoquinolin-1-one]: the EC50 on CYP11B2 [1] amounted to 34 nM; at human CYP11B1 it was 3840 nM.
Consider `CC(=O)N1CC(Nc2cncc(N3CCc4cc(Cl)ccc4C3=O)c2)C1` [Example 32, 2-[5-[(1-Acetylazetidin-3-yl)amino]pyridin-3-yl]-6-chloro-3,4-dihydroisoquinolin-1-one], for which the results for the EC50 on CYP11B2 [1] and at human CYP11B1 were 215 nM and 41100 nM, respectively.
For `CCC(=O)N1CC(Nc2cncc(N3C(=O)c4ccc(Cl)cc4C3C)c2)C1` (centres unmarked) [Example 33, 5-Chloro-3-methyl-2-[5-[(1-propanoylazetidin-3-yl)amino]pyridin-3-yl]-3H-isoindol-1-one] the same measures were 65 nM and above 30000 nM.
For the compound `CCS(=O)(=O)N1CC(Nc2cncc(N3C(=O)c4ccc(Cl)cc4C3C)c2)C1` (centres unmarked) [Example 34, 5-Chloro-2-[5-[(1-ethylsulfonylazetidin-3-yl)amino]pyridin-3-yl]-3-methyl-3H-isoindol-1-one], the EC50 stood at 70 nM on CYP11B2 [1] and 4530 nM at human CYP11B1.
As for `CC(=O)N1CC2(CC(Nc3cncc(N4C(=O)c5ccc(Cl)cc5C4(C)C)c3)C2)C1` [Example 35, 2-[5-[(2-Acetyl-2-azaspiro[3.3]heptan-6-yl)amino]pyridin-3-yl]-5-chloro-3,3-dimethylisoindol-1-one], the EC50 at CYP11B2 [1] turned out to be 449 nM; at human CYP11B1 it was 6850 nM.
`CCC(=O)N1CC2(CC(Nc3cncc(N4C(=O)c5ccc(Cl)cc5C4(C)C)c3)C2)C1` [Example 36, 5-Chloro-3,3-dimethyl-2-[5-[(2-propanoyl-2-azaspiro[3.3]heptan-6-yl)amino]pyridin-3-yl]isoindol-1-one]: the EC50 on CYP11B2 [1] amounted to 44 nM; on human CYP11B1, 15400 nM.
As for `CCS(=O)(=O)N1CC2(CC(Nc3cncc(N4C(=O)c5ccc(Cl)cc5C4(C)C)c3)C2)C1` [Example 37, 5-Chloro-2-[5-[(2-ethylsulfonyl-2-azaspiro[3.3]heptan-6-yl)amino]pyridin-3-yl]-3,3-dimethylisoindol-1-one], the EC50 at CYP11B2 [1] was 10 nM; on human CYP11B1, 7370 nM.
As to `CC(C)S(=O)(=O)N1CC2(CC(Nc3cncc(N4C(=O)c5ccc(Cl)cc5C4(C)C)c3)C2)C1` [Example 38, 5-Chloro-3,3-dimethyl-2-[5-[(2-propan-2-ylsulfonyl-2-azaspiro[3.3]heptan-6-yl)amino]pyridin-3-yl]isoindol-1-one], the EC50 at CYP11B2 [1] was 11 nM; on human CYP11B1, 8240 nM.
In the case of `CCS(=O)(=O)N1CCC(Nc2cncc(N3C(=O)c4ccc(C#N)cc4C3(C)C)c2)CC1` [Example 43, 2-[5-[(1-Ethylsulfonyl-4-piperidyl)amino]-3-pyridyl]-3,3-dimethyl-1-oxo-isoindoline-5-carbonitrile], the EC50 on CYP11B2 [1] amounted to 13 nM; on human CYP11B1 it was 4570 nM.
With `CCC(=O)N1CCC(Nc2cncc(N3C(=O)c4ccc(C#N)cc4C3(C)C)c2)CC1` [Example 44, 3,3-Dimethyl-1-oxo-2-[5-[(1-propanoyl-4-piperidyl)amino]-3-pyridyl]isoindoline-5-carbonitrile], the EC50 worked out at 22 nM on CYP11B2 [1] and 6990 nM on human CYP11B1.
For `CCC(=O)N1CC(Nc2cncc(N3C(=O)c4ccc(C#N)cc4C3(C)C)c2)C1` [Example 45, 3,3-Dimethyl-1-oxo-2-[5-[(1-propanoylazetidin-3-yl)amino]-3-pyridyl]isoindoline-5-carbonitrile] the same measures were 122 nM and 5930 nM.
With `N#Cc1ccc([C@H]2CCc3cncn32)c(F)c1` [LCI699], at CYP11B2 [2], the blood pressure result is “mildly decreased”, the circulating aldosterone levels result is given as “significantly lower”, the hypokalemia entry is on record as “corrected” and the “selectivity (effects on the glucocorticoid axis)” value was “poor selectivity”.
As for `CC(=O)S[C@@H]1CC2=CC(=O)CC[C@]2(C)[C@H]2CC[C@@]3(C)[C@@H](CC[C@@]34CCC(=O)O4)[C@H]12` [spironolactone], in test [3] (setting [4]), the “cardiac and aortic medial hypertrophy” value was “attenuated”; the “renal effects (albuminuria, azotemia, renovascular hypertrophy, glomerular injury, PAI-1 and osteopontin mRNA, tubulointerstitial fibrosis)” value is “prevented”. The “angiotensin II and salt-stimulated PAI-1 mRNA expression” value in test [3] (aorta and heart) is reported as “enhanced”. Also, in test [3] (at 4 and 8 weeks of treatment), the aldosterone result is given as “increased”.

The values above are taken from patent US9695151B2, “3,4-dihydro-2H-isoquinoline-1-one and 2,3-dihydro-isoindol-1-one compounds” (Hoffmann-La Roche Inc., priority 2013, dated 2017).
